# In US5484804A, “Perhydroisoindole derivatives as antagonists of substance P” (Rhone-Poulenc Rorer S.A., priority 1992, dated 1996):
# Columns and labels:
# Assay type in all cases: in vivo
# formalin pain = formalin pain test; details: Cavia porcellus, po; guinea-pig, administered perorally 1 hour before the test
# [1] = system: hypotension induced by substance P; assay: antagonism of hypotension induced by substance P; details: Cavia porcellus, iv; guinea-pig, hypotension induced by i.v. injection of 250 ng/kg of substance P; read-out: ED50, dose which reduces by 50% the hypotension
# Description: Injection of substance P in animals causes hypotension. The products studied by the technique of C. A. Maggi et al., J. Auton. […] The ED50, the dose which reduces by 50% the hypotension induced by an i.v. injection of 250 ng/kg of substance P, is determined.
# [2] = system: increase in capillary permeability caused by septide (agonist of substance P); assay: inhibition of the increase in capillary permeability caused by septide; details: Cavia porcellus, guinea-pig
# From the text: The study of some isoindole derivatives of the general formula (I) by the technique of A. Saria et al., Arch.
# [3] = system: bronchospasm induced by [Pro^9 ] substance P; assay: inhibition of bronchospasm induced by [Pro9] substance P; details: Cavia porcellus, iv; guinea-pig, bronchospasm induced by 3 μg/kg i.v. of [Pro9] substance P; read-out: ED50, dose which reduces by 50% the bronchospasm
# From the text: Injection of substance P causes a bronchospasm in the animal. The bronchoconstriction induced in vivo in the guinea-pig by injection of substance P or a selective agonist of substance P:. [Pro^9 ] substance P, is studied by the technique of H. Konzett and R. Rosseler, Archiv. Exp. Path. Pharmak., 195, 71-74 (1940). This bronchoconstriction is inhibited by injection of a product according to the invention, which is evidence of an antiasthmatic activity. The ED50, the dose which reduces by 50% the bronchospasm induced by 3 μg/kg i.v. of [Pro^9 ] substance P, is determined. In this technique, the ED50 of the product of Example 1 is 0.7 mg/kg i.v.
smiles,measurement,setting,value
"COc1ccccc1[C@H](C)C(=O)N1C[C@@H]2[C@H](C1)C(c1ccccc1)(c1ccccc1)CC[C@@]2(O)c1ccccc1OC [Example 1, (3aS,4S,7aS)-7,7-diphenyl-4-(2-methoxyphenyl)-2-[(S)-2-(2methoxyphenyl)propionyl]perhydroisoindol-4-ol]",ED50,formalin pain,11 mg/kg
same,ED50,[1],0.15 mg/kg
same,ED50,[2]; iv,0.04 mg/kg
same,ED50,[2]; po,3.5 mg/kg
same,ED50,[3],0.7 mg/kg
